Experiments:
Test in all cases: relative viability (nuclei count vs DMSO), 5 days (fraction); higher = more cells survive
Vorinostat + Navitoclax = compound: O=C(CCCCCCC(=O)Nc1ccccc1)NO [Vorinostat] + CC1(C)CCC(c2ccc(Cl)cc2)=C(CN2CCN(c3ccc(C(=O)NS(=O)(=O)c4ccc(N[C@H](CCN5CCOCC5)CSc5ccccc5)c(S(=O)(=O)C(F)(F)F)c4)cc3)CC2)C1 [Navitoclax] (partner 0.5 µM)
Procedure, shortened: (§1)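 Relative viability was taken as the ratio of nuclei in treated wells to nuclei in vehicle wells. Lung cancer cell lines in 1536-well plates received compounds by pin tool one day after seeding, either one drug alone or a fixed anchor-drug dose plus five library-drug doses (not always all listed) in √10 steps. Nuclei were counted on 4× images after 5 days of treatment, and values are medians of duplicate plates.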

Vorinostat + Pictilisib = compound: O=C(CCCCCCC(=O)Nc1ccccc1)NO [Vorinostat] + CS(=O)(=O)N1CCN(Cc2cc3nc(-c4cccc5[nH]ncc45)nc(N4CCOCC4)c3s2)CC1 [Pictilisib] (partner 1 µM)
Procedure, shortened: as §1

Vorinostat + Crizotinib = compound: O=C(CCCCCCC(=O)Nc1ccccc1)NO [Vorinostat] + C[C@@H](Oc1cc(-c2cnn(C3CCNCC3)c2)cnc1N)c1c(Cl)ccc(F)c1Cl [Crizotinib] (partner 1 µM)
Procedure, shortened: as §1

Vorinostat + Trametinib = compound: O=C(CCCCCCC(=O)Nc1ccccc1)NO [Vorinostat] + CC(=O)Nc1cccc(-n2c(=O)n(C3CC3)c(=O)c3c(Nc4ccc(I)cc4F)n(C)c(=O)c(C)c32)c1 [Trametinib] (partner 0.02 µM)
Procedure, shortened: as §1

Vorinostat + Luminespib = compound: O=C(CCCCCCC(=O)Nc1ccccc1)NO [Vorinostat] + CCNC(=O)c1noc(-c2cc(C(C)C)c(O)cc2O)c1-c1ccc(CN2CCOCC2)cc1 [Luminespib] (partner 0.01 µM)
Procedure, shortened: as §1

Cell Line	relative viability (Vorinostat + Navitoclax; first compound 0.253 µM)	relative viability (Vorinostat + Navitoclax; first compound 0.8 µM)	relative viability (Vorinostat + Navitoclax; first compound 2.53 µM)	relative viability (Vorinostat + Navitoclax; first compound 8 µM)	relative viability (Vorinostat + Pictilisib; first compound 0.253 µM)	relative viability (Vorinostat + Pictilisib; first compound 0.8 µM)	relative viability (Vorinostat + Pictilisib; first compound 2.53 µM)	relative viability (Vorinostat + Pictilisib; first compound 8 µM)	relative viability (Vorinostat + Crizotinib; first compound 0.253 µM)	relative viability (Vorinostat + Crizotinib; first compound 0.8 µM)	relative viability (Vorinostat + Crizotinib; first compound 2.53 µM)	relative viability (Vorinostat + Crizotinib; first compound 8 µM)	relative viability (Vorinostat + Trametinib; first compound 0.253 µM)	relative viability (Vorinostat + Trametinib; first compound 0.8 µM)	relative viability (Vorinostat + Trametinib; first compound 2.53 µM)	relative viability (Vorinostat + Trametinib; first compound 8 µM)	relative viability (Vorinostat + Luminespib; first compound 0.253 µM)	relative viability (Vorinostat + Luminespib; first compound 0.8 µM)	relative viability (Vorinostat + Luminespib; first compound 2.53 µM)	relative viability (Vorinostat + Luminespib; first compound 8 µM)
HCC-366	1.03	0.9	0.135	0.0208	0.132	0.191	0.0894	0.037	0.217	0.1	0.0143	0.0124	0.412	0.333	0.062	0.0267	–	–	–	–
HCC-827	1.04	1.03	0.818	0.195	1.1	1.08	0.732	0.411	0.97	0.964	0.581	0.174	0.712	0.642	0.351	0.163	0.655	0.641	0.257	0.168
HOP-62	0.969	0.779	0.215	0.0581	0.966	0.205	0.203	0.079	0.972	0.831	0.251	0.0671	0.509	0.406	0.16	0.0861	0.942	0.904	0.396	0.103
IA-LM	0.791	0.597	0.235	0.0188	0.309	0.25	0.114	0.0475	0.751	0.743	0.152	0.0423	–	–	–	–	–	–	–	–
LC-2-ad	0.539	0.277	0.102	0.113	0.568	0.292	0.0981	0.0042	0.368	0.361	0.268	0.178	0.936	0.776	0.435	0.221	1.11	0.918	0.367	0.208
LCLC-97TM1	–	0.298	0.289	0.0998	–	0.151	0.168	0.0934	–	0.328	0.157	0.11	0.238	0.207	0.142	0.074	0.819	0.704	0.299	0.122
LCLC-103H	–	–	–	–	0.794	0.55	0.306	0.211	1.12	1.13	0.737	0.254	0.804	0.7	0.473	0.337	0.987	0.939	0.185	0.145
LK-2	0.939	0.585	0.169	0.0764	0.48	0.379	0.211	0.132	0.227	0.237	0.175	0.0931	0.893	0.496	0.167	0.0907	0.207	0.171	0.152	0.132
LOU-NH91	0.791	0.568	0.313	0.233	0.556	0.472	0.417	0.32	0.755	0.746	0.599	0.362	0.883	0.857	0.754	0.455	0.376	0.417	0.329	0.283
LU99A	0.653	0.553	0.172	0.0974	0.264	0.278	0.154	0.141	0.523	0.44	0.236	0.146	0.614	0.54	0.33	0.138	0.291	0.26	0.141	0.121
LXF-289	1.04	0.963	0.279	0.0872	0.913	0.704	0.272	0.088	0.904	0.76	0.273	0.0737	0.709	0.639	0.424	0.0759	0.763	0.596	0.299	0.0958
NCI-H358	–	–	–	–	0.372	0.468	0.17	0.172	0.526	0.393	0.133	0.134	0.171	0.149	0.0954	0.0859	0.429	0.521	0.308	0.126
NCI-H650	–	–	–	–	0.902	0.491	0.183	0.16	0.716	0.503	0.155	0.165	1.24	0.839	0.243	0.111	0.773	0.808	0.201	0.155
NCI-H661	–	–	–	–	0.557	0.696	0.462	0.214	1.01	1.03	0.483	0.327	0.767	0.614	0.303	0.301	0.905	0.725	0.34	0.298
NCI-H1395	1.14	1.26	0.693	0.387	0.637	0.619	0.427	0.362	–	–	–	–	1.23	0.964	0.777	0.412	0.912	0.829	0.643	0.346
NCI-H1563	–	–	–	–	0.682	0.637	0.68	0.592	0.796	0.824	0.469	0.492	–	–	–	–	0.587	0.496	0.433	0.416
NCI-H1703	1.46	1.47	0.888	0.161	0.31	0.233	0.363	0.2	0.977	0.716	0.298	0.113	–	–	–	–	–	–	–	–
NCI-H1793	0.534	0.521	0.186	0.118	0.479	0.355	0.286	0.174	–	–	–	–	0.383	0.34	0.3	0.182	0.206	0.187	0.159	0.146
NCI-H2342	–	–	–	–	–	–	–	–	–	–	–	–	0.703	0.774	0.685	0.484	0.817	0.589	0.499	0.391

Source: the supplement of paper PMC10307832
